The results in this text go back to patent publication US11446298B2, “Pyrimidine derivatives” (Idorsia Pharmaceuticals Ltd, priority 2017, dated 2022).

What all share (assay type): cell-based
The target in one assay is T1, PTGER2 (EP2) (Homo sapiens, UniProt P43116).
T1 construct: host or cells: HEK 293 (PathHunter, stably transfected)
Put plainly: hEP2 b-Arrestin Assay (PathHunter HEK 293 PTGER2 b-arrestin cells, PGE2 5 μM). The conditions noted are these: antagonistic activity, beta-arrestin assay, HEK 293 PTGER2 cells, PGE2 5 μM (EC80); read-out: hEP2 b-arr IC50. In a few lines:
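PathHunter enzyme-fragment complementation in HEK 293 cells: compounds (10 μM-2 nM or 1 μM-0.2 nM) pre-incubated 15 min at 37 °C, then 5 μM PGE2 (EC80) for 120 min at 37 °C. Chemiluminescence read after 1 h detection; IC50 from duplicate dose-response fits, means of repeats.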

The target in the next assay is T2, PTGER4 (EP4) (Homo sapiens, UniProt P35408).
T2 construct: host or cells: HEK 293 (PathHunter, stably transfected)
T2 sequence (P35408 whole entry): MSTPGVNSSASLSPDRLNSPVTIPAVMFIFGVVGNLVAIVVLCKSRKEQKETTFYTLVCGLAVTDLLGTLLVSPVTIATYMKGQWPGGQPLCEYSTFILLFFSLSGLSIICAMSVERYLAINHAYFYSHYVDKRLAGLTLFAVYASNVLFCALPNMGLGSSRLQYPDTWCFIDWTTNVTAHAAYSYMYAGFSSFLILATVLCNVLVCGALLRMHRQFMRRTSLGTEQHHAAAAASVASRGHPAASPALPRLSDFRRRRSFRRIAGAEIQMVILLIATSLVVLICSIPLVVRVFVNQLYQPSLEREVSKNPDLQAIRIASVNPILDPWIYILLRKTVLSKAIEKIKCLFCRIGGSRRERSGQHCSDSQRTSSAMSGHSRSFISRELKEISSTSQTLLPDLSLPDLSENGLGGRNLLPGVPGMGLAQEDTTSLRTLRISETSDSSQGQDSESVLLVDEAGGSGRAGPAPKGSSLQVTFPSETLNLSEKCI
Put plainly: hEP4 b-Arrestin Assay (PathHunter HEK 293 PTGER4 b-arrestin cells, PGE2 20 nM). As to conditions: antagonistic activity, beta-arrestin assay, HEK 293 PTGER4 cells, PGE2 20 nM (EC80); read-out: hEP4 b-arr IC50. The procedure, abridged: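 PathHunter HEK 293 EP4 b-arrestin enzyme-complementation cells preincubated 15 min at 37° C with compound (10 μM-2 nM or 1 μM-0.2 nM), then stimulated 120 min with 20 nM PGE2 (EC80). Chemiluminescence read; IC50 from duplicate % activity vs DMSO, one-site fit, averaged over repeats.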

In the next assay the target is T3, EP2 (Homo sapiens, UniProt P43116).
T3 construct: SF295 glioblastoma cells express high endogenous EP2 and no EP4; host or cells: SF295 glioblastoma cells
T3 sequence (P43116 whole entry): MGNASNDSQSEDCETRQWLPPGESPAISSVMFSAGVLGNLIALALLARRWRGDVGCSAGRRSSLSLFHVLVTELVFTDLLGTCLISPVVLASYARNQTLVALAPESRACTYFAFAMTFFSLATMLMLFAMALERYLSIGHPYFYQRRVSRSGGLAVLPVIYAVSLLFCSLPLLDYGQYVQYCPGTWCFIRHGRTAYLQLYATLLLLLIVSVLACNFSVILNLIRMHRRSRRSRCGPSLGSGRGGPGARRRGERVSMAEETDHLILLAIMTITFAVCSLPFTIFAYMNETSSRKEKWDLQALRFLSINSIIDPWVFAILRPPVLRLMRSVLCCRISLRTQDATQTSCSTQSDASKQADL
Put plainly: hEP2 cAMP Assay (SF295 glioblastoma cells, HTRF cAMP, PGE2 75 nM). The conditions noted are these: antagonistic activity, PGE2 75 nM (EC80). In a few lines: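 IC50 values derive from duplicate-point curves of percent cAMP relative to DMSO, read by HTRF (665/620 nm) against a cAMP calibrator. Compounds (30 μM to 0.01 nM ranges) were given 45 min at room temperature before 30 min with 75 nM PGE2, in EP2-only SF295 cells with 2 mM IBMX.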
On the technique in general: Time-resolved FRET reads energy transfer from a long-lived donor to a nearby acceptor.

In the next assay the target is T4, EP4 (Homo sapiens, UniProt P35408).
T4 construct: BT549 breast cancer cells, express high endogenous EP4 levels and very low EP2 levels; host or cells: BT549 breast cancer cells
T4 sequence (P35408 whole entry): as the sequence (P35408 whole entry) above
Put plainly: hEP4 cAMP Assay (BT549 breast cancer cells, HTRF cAMP, PGE2 6 nM). The conditions noted are these: antagonistic activity, PGE2 6 nM (EC80). The procedure, abridged:
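BT549 cells (endogenous EP4, very low EP2) in HBSS/20 mM HEPES/0.2% BSA/2 mM IBMX, pre-incubated 45 min RT with compound, then stimulated 30 min RT with PGE2 6 nM (EC80). cAMP read by HTRF competitive immunoassay (665/620 nm), converted via calibrator to % of DMSO control; IC50 from duplicate dose-response curves.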

T1 sequence (P43116 whole entry): as the sequence (P43116 whole entry) above

In the case of `CCOc1cc(-c2cc(NCCc3c(OC)ccc4ccccc34)ncn2)ccc1CC(=O)O` [Example 160, (2-Ethoxy-4-{6-[2-(2-methoxy-naphthalen-1-yl)-ethylamino]-pyrimidin-4-yl}-phenyl)-acetic acid], the 50% inhibitory concentration (IC50) – broadly, the concentration at which inhibition is half-maximal – on PTGER2 (EP2) came out at 24 nM; at PTGER4 (EP4), 667 nM; on EP2 it was 79 nM; against EP4 it was 252 nM.
The like results for `CCOc1cc(-c2cc(NCCc3c(Cl)ccc4cccnc34)ncn2)sc1C(=O)O` [Example 15, 5-{6-[2-(7-Chloro-quinolin-8-yl)-ethylamino]-pyrimidin-4-yl}-3-ethoxy-thiophene-2-carboxylic acid] were, in that order, 27 nM, 192 nM, 25 nM and 171 nM.
For `CCOc1nc(-c2cc(NCCc3c(OC)ccc4ccccc34)ncn2)sc1C(=O)O` [Example 147, 4-Ethoxy-2-{6-[2-(2-methoxy-naphthalen-1-yl)-ethylamino]-pyrimidin-4-yl}-thiazole-5-carboxylic Acid], in that order: 7 nM, 40 nM, 10 nM and 44 nM.
For `CCOc1cc(-c2cc(NCCc3c(OC)ccc4ccccc34)ncn2)sc1C(=O)NS(N)(=O)=O` [Example 135, 3-Ethoxy-5-(6-((2-(2-methoxynaphthalen-1-yl)ethyl)amino)pyrimidin-4-yl)-N-sulfamoylthiophene-2-carboxamide], in that order: 5 nM, 23 nM, 3 nM and 67 nM.
For `CCOc1cc(-c2cc(NCCc3c(OC)ccc4c3CCO4)ncn2)sc1C(=O)O` [Example 34, 3-Ethoxy-5-{6-[2-(5-methoxy-2,3-dihydro-benzofuran-4-yl)-ethylamino]-pyrimidin-4-yl}-thiophene-2-carboxylic acid], the IC50 on PTGER2 (EP2) turned out to be 39 nM; on PTGER4 (EP4), 114 nM; against EP2, 64 nM; on EP4 it was 152 nM.
For `CCOc1cc(-c2cc(NCCc3ccc(OC)c4ccccc34)ncn2)sc1C(=O)O` [Example 59, 3-Ethoxy-5-{6-[2-(4-methoxy-naphthalen-1-yl)-ethylamino]-pyrimidin-4-yl}-thiophene-2-carboxylic acid], in that order: 156 nM, 17 nM, 141 nM and 38 nM.
With `CCOc1cc(-c2cc(NCCc3cccc4ccccc34)ncn2)ccc1C(=O)O` [Example 6, 2-Ethoxy-4-[6-(2-naphthalen-1-yl-ethylamino)-pyrimidin-4-yl]-benzoic acid], the IC50 is 85 nM on PTGER2 (EP2), 1690 nM on PTGER4 (EP4), 95 nM against EP2 and 910 nM against EP4.
Turning to `COc1ccc2ccccc2c1CCNc1cc(-c2ccc(C(=O)O)c(OC3CCC3)c2)ncn1` [Example 5, 2-Cyclobutoxy-4-{6-[2-(2-methoxy-naphthalen-1-yl)-ethylamino]-pyrimidin-4-yl}-benzoic acid], the IC50 on PTGER2 (EP2) amounted to 25 nM; at PTGER4 (EP4), 182 nM; against EP2, 24 nM; against EP4 it was 203 nM.
Take `CCOc1cc(-c2cc(NCCc3cccc4[nH]ccc34)ncn2)sc1-c1noc(=O)[nH]1` [Example 137, 3-(3-Ethoxy-5-{6-[2-(1H-indol-4-yl)-ethylamino]-pyrimidin-4-yl}-thiophen-2-yl)-[1,2,4]oxadiazol-5(4H)-one]: the IC50 was found to be 16 nM at PTGER2 (EP2), 37 nM on PTGER4 (EP4), 37 nM against EP2 and 37 nM at EP4.
With `CCOc1cc(-c2cc(NCCc3cccc4sccc34)ncn2)sc1C(=O)O` [Example 108, 5-[6-(2-Benzo[b]thiophen-4-yl-ethylamino)-pyrimidin-4-yl]-3-ethoxy-thiophene-2-carboxylic acid], the IC50 was 31 nM at PTGER2 (EP2), 225 nM on PTGER4 (EP4), 52 nM at EP2 and 31 nM at EP4.
Turning to `CCOc1cc(-c2cc(NCCc3c(OC(C)C)ccc4ccccc34)ncn2)sc1C(=O)O` [Example 30, 3-Ethoxy-5-{6-[2-(2-isopropoxy-naphthalen-1-yl)-ethylamino]-pyrimidin-4-yl}-thiophene-2-carboxylic acid], the IC50 on PTGER2 (EP2) is 115 nM; on PTGER4 (EP4), 83 nM; against EP2, 23 nM; against EP4, 61 nM.
The like results for `CCOc1cc(-c2cc(NCCc3c(OC)ccc4ncccc34)ncn2)sc1C(=O)O` [Example 65, 3-Ethoxy-5-{6-[2-(6-methoxy-quinolin-5-yl)-ethylamino]-pyrimidin-4-yl}-thiophene-2-carboxylic acid] were, in that order, 18 nM, 78 nM, 15 nM and 75 nM.
For `CCOc1cc(-c2cc(NCCc3cccc4ccn(C)c34)ncn2)sc1C(=O)O` [Example 24, 3-Ethoxy-5-{6-[2-(1-methyl-1H-indol-7-yl)-ethylamino]-pyrimidin-4-yl}-thiophene-2-carboxylic acid], in that order: 17 nM, 203 nM, 15 nM and 96 nM.
For `CCOc1cc(-c2cc(NCCc3ccc(C(F)F)c4ccccc34)ncn2)sc1C(=O)O` [Example 72, 5-{6-[2-(4-Difluoromethyl-naphthalen-1-yl)-ethylamino]-pyrimidin-4-yl}-3-ethoxy-thiophene-2-carboxylic acid], in that order: 50 nM, 8 nM, 50 nM and 6 nM.
As for `CCOc1cc(-c2cc(NCCc3cccc4c(F)cccc34)ncn2)ccc1CC(=O)O` [Example 163, (2-Ethoxy-4-{6-[2-(5-fluoro-naphthalen-1-yl)-ethylamino]-pyrimidin-4-yl}-phenyl)-acetic acid], the half-inhibitory concentration (IC50) stood at 80 nM at PTGER2 (EP2), 294 nM on PTGER4 (EP4), 202 nM against EP2 and 180 nM on EP4.
The like results for `CCOc1cc(-c2cc(NCCc3c(C)ccc4c3cnn4C)ncn2)sc1C(=O)O` [Example 79, 5-{6-[2-(1,5-Dimethyl-1H-indazol-4-yl)-ethylamino]-pyrimidin-4-yl}-3-ethoxy-thiophene-2-carboxylic acid] were, in that order, 36 nM, 196 nM, 25 nM and 92 nM.
The like results for `CCOc1cc(-c2cc(NCCc3ccc(C)c4ccccc34)ncn2)sc1C(=O)O` [Example 18, 3-Ethoxy-5-{6-[2-(4-methyl-naphthalen-1-yl)-ethylamino]-pyrimidin-4-yl}-thiophene-2-carboxylic acid] were, in that order, 19 nM, 9 nM, 21 nM and 7 nM.
Turning to `CCOc1cc(-c2cc(NCCc3ccc(OC)c4ccccc34)ncn2)sc1-c1noc(=O)[nH]1` [Example 141, 3-(3-Ethoxy-5-{6-[2-(4-methoxy-naphthalen-1-yl)-ethylamino]-pyrimidin-4-yl}-thiophen-2-yl)-[1,2,4]oxadiazol-5(4H)-one], the IC50 was 61 nM at PTGER2 (EP2), 4 nM on PTGER4 (EP4), 72 nM at EP2 and 17 nM on EP4.
As to `CCOc1cc(-c2cc(NCCc3cc(OC)cc4ccccc34)ncn2)sc1C(=O)O` [Example 42, 3-Ethoxy-5-{6-[2-(3-methoxy-naphthalen-1-yl)-ethylamino]-pyrimidin-4-yl}-thiophene-2-carboxylic acid], the IC50 at PTGER2 (EP2) was found to be 32 nM; at PTGER4 (EP4), 15 nM; at EP2, 31 nM; against EP4 it was 35 nM.
The like results for `CCOc1cc(-c2cc(NCCc3cccc4cc(C)oc34)ncn2)sc1C(=O)O` [Example 74, 3-Ethoxy-5-{6-[2-(2-methyl-benzofuran-7-yl)-ethylamino]-pyrimidin-4-yl}-thiophene-2-carboxylic acid] were, in that order, 212 nM, 117 nM, 78 nM and 88 nM.
For `CCOc1cc(-c2cc(NCCc3cccc4ccoc34)ncn2)sc1C(=O)O` [Example 35, 5-[6-(2-Benzofuran-7-yl-ethylamino)-pyrimidin-4-yl]-3-ethoxy-thiophene-2-carboxylic acid], in that order: 115 nM, 113 nM, 76 nM and 92 nM.
